Among the data in patent EP0719271B1, “5-(1-FLUORO-VINYL)-1H-PYRIMIDINE-2,4-DIONE DERIVATIVES USEFUL AS ANTINEOPLASTIC AGENTS” (MERRELL PHARMACEUTICALS INC., priority 1993, dated 1995) are IC50 values, retold here.

Where two headings read alike, the source gives them in different places.

In the test the test system is KB cells. Put plainly: Antiproliferative activity against KB cells, cell viability by colorimetric MTT reduction assay. The test is classed as cell-based. The settings on record: Homo sapiens. The method, then:
Plate KB cells (2X10^3 cells/well) and allow to grow for 18 hours. Treat with 2'-deoxy-5-(1-fluoroethenyl)uridine (15ng/mL) for 24 hours. Wash the compound and expose cells to 5-fluorouracil for another 72 hours. Determine the cell viability by a colorimetric assay, essentially as described by Carmichael et al. [Cancer Res. 47, 936 (1987)], whereby the cellular reduction of MTT [3-(4,5-dimethylthiazol-2-yl)-2,5-diphenyltetrazolium bromide] is measured.
Calculate IC50 values for the individual treatments as well as for the combined treatments of 2'-deoxy-5-(1-fluoroethenyl)-uridine with 5-fluorouracil. The IC50 values at the various concentrations of 2'-deoxy-5-(1-fluoroethenyl)-uridine alone, 5-fluorouracil alone and 2'-deoxy-5-(1-fluoroethenyl)-uridine in combination with 5-fluorouracil are presented in Table 1.
For orientation: Tetrazolium assays rely on reduction of a dye to a coloured formazan, in cell work by metabolically active cells.

What is called IC50 is the concentration that gives 50% inhibition. As for `C=C(F)c1cn([C@H]2C[C@H](O)[C@@H](CO)O2)c(=O)[nH]c1=O` [2'-Deoxy-5-(1-fluoroethenyl)-uridine, 2'-deoxy-5-(1-fluoroethenyl)uridine], the IC50 (individual treatment (compound alone), KB cells, 2X10^3 cells/well, MTT viability, read-out: IC50) worked out at 9.4 µM.
Consider `O=c1[nH]cc(F)c(=O)[nH]1` [5-Fluorouracil], for which the IC50 (KB) was determined as 60 µM.
